Measurements from patent US7642277B2, “Non-nucleoside reverse transcriptase inhibitors” (Boehringer Ingelheim International GmbH, priority 2002, dated 2010).

Columns and labels:
HIV-1 (wild type) = assay: P24 cellular assay (EC50), data identified with * in Table 9, wild type; assay type: cell-based; conditions: Human immunodeficiency virus 1
Excerpt: P24 Cellular Assay (EC50) (Data Identified with * in Table 9).
The p24 assay is as described in WO 01/96338, the contents of which are herein incorporated by reference.
(§1) The results are listed in Table 9 as IC50(nM) and EC50 (nM).
(§2) Table legend: A=>100; B=100-50; C=<50; NT=not tested

[1] = biological target: T1, HIV-1 RT resistant mutant K103N/Y181C (Human immunodeficiency virus type 1 group M subtype B, UniProt P04585, K690N/Y768C); assay: Reverse transcriptase (RT) enzymatic assay (IC50), PicoGreen fluorescence, resistant mutant; assay type: biochemical
T1 construct: The reverse transcriptase (RT) enzyme assay has been adapted to a 96-well microtiter plate format
Method: Reverse Transcriptase (RT) Assays Enzymatic Assay (IC50)
The enzymatic assay employed is described as follows: The reverse transcriptase (RT) enzyme assay has been adapted to a 96-well microtiter plate format and uses PicoGreen™ as a fluorescent intercalator. More explicitly, the HIV-1 RT enzyme was thawed and appropriately diluted into Tris/HCl 50 mM pH 7.8 containing NaCl 60 mM, MgCl2∘6H2O 2 mM, DTT 6 mM, GSH 2 mM and 0.02% w/v Chaps to give ≈10 nM enzyme. To 10 μL of this enzyme solution was added 10 μL of inhibitor solution (40 μM to […] inhibitor in the same assay buffer as above containing 4% v/v DMSO). The plate was pre-incubated for 15 minutes at room temperature before proceeding to the next step. In this pre-incubation step, the highest and lowest inhibitor concentrations were 20 μM and 1.016 nM respectively and the concentration of DMSO was 2% v/v. Then the enzymatic reaction was initiated by addition of 20 μL of substrate solution. The final reaction mixture contained Tris/HCl 50 mM pH 7.8, NaCl 60 mM, MgCl2∘6H2O 2 mM, DTT 6 mM, GSH 2 mM, CHAPS 0.02% w/v, DMSO 1% v/v, poly rC 45 nM, dG15 4.5 nM, dGTP 3.6 μM, and ≈2.5 nM enzyme. In this incubation step, the highest and lowest inhibitor concentrations were 10 μM and 0.508 nM respectively. After addition of the substrate cocktail, the plate was covered with a plastic seal and incubated for 50 minutes at 37° C. in a dry incubator. The reaction was then quenched by addition of 5 μL of EDTA 0.5 M. The plate was shaken for 30 seconds at medium speed and incubated for 5 minutes at room temperature. Then 160 μL of PicoGreen™ 1:400 dilution from commercial stock (diluted in Tris 20 mM pH 7.5 with EDTA 1 mM) was added and the plate was shaken for 30 seconds and incubated for 10 minutes at room temperature. The plate was then analyzed using a POLARstar Galaxy fluorimeter (BMG Labtechnologies) with λex and λem of 485 nm and 520 nm respectively. […] Each row contained at its extremities a blank and a control well.
as §2

[2] = tested on: HIV-1 resistant mutant K103N/Y181C in C8166 LTRluc cells; assay: C8166 HIV-1 luciferase assay (EC50), resistant mutant; assay type: cell-based; conditions: Human immunodeficiency virus 1, C8166, read-out: EC50 K103N/Y181C
Excerpt: (§3) C8166 HIV-1 Luciferase Assay (EC50)
(§4) Plasmid: pGL3 Basic LTR/TAR #12
(§5) C8166 cells are a human T-lymphotrophic virus type 1 immortalized but nonexpressing line of cord blood lymphocytes and are highly permissive to HIV-1 infection. The reporter cells were made by electroporating C8166 cells with pGL3 Basic LTR/TAR and then selecting positive clones with blasticidine. The clone C8166-LTRluc #A8-F5-G7 was selected by 3 consecutive rounds of limiting dilution under blasticidine selection.
(§6) Media: Complete media consisting of: RPMI 1640+10% FBS+10^−5 M
(§7) β-mercaptoethanol+10 μg/ml gentamycin. Cultures are maintained in complete media with 5 μg/ml blasticidine, however, selection is removed for the assay.
(§8) Luciferase Assay Protocol
(§9) Eleven serial dilutions of 2.5× are made at 8× desired final concentration in a 1 ml deep well titer plate (96 wells). The 12th well contains complete media with no inhibitor and serves as the positive control. All samples contain the same concentration of DMSO (≦0.1% DMSO). A 25 μl aliquot of inhibitor is added, to triplicate wells, of a 96 well tissue culture treated clear view black microtiter plate (Corning Costar catalogue # 3904). The last row is reserved for uninfected C8166 LTRluc cells to serve as the background blank control and the first row is media alone.
Count C8166 LTRluc cells and place in a minimal volume of complete RPMI 1640 in a tissue culture flask (ex. 30×10^6 cells in 10 ml media/25 cm^2 flask). […] Incubate cells for 1.5 hours at 37° C. on a rotating rack in a 5% CO2 incubator. Resuspend cells in complete RPMI to give a final concentration of 25,000-cells/175 μl. Add 175 μl of cell mix to wells of 96 well microtiter plate containing 25 μl 8× inhibitors. Add 25,000 uninfected C8166-LTRluc cells/well in 200 μl complete RPMI to last row for background control. Incubate cells at 37° C. in 5% CO2 incubator for 3 days.
(§10) Add 50 μl Steady Glo (luciferase substrate T1/2=5 hours Promega catalogue # E2520) to each well of the 96 well plate. Determine the relative light units (RLU) of luciferase using the BMG LUMlstar Galaxy luminometer. Plates are read from the bottom for 2 seconds per well with a gain of 240.
(§11) The level of inhibition (% inhibition) of each well containing inhibitor was calculated with the following equation: […]
The calculated % inhibition values were then used to determine EC50, slope factor (n) and maximum inhibition (Imax) by the non-linear regression routine NLIN procedure of SAS using the following equation:
as §2

[3] = tested on: HIV-1 (wild type) in C8166 LTRluc cells; assay: C8166 HIV-1 luciferase assay (EC50), wild type; assay type: cell-based; conditions: Human immunodeficiency virus 1, C8166 HIV-1 luciferase assay (no *)
Excerpt: as §3, §4
Plasmid is the pGL3 Basic Vector (a promoterless luciferase expression vector from Promega catalogue #E1751) with the addition of HIV-1 H×B2 LTR sequence from nucleotide −138 to +80 (Sca1-HindIII) upstream of the luciferase gene and the gene for blasticidine resistance cloned in.
as §5, §6, §7, §8
as §9, with “Serial dilutions of HIV-1 inhibitors compounds are prepared in complete media from 10 mM DMSO stock solutions. Eleven” for “Eleven”
Count C8166 LTRluc cells and place in a minimal volume of complete RPMI 1640 in a tissue culture flask (ex. 30×10^6 cells in 10 ml media/25 cm^2 flask). Infect cells with HIV-1 at a moi of 0.005. Incubate cells for 1.5 hours at 37° C. on a rotating rack in a 5% CO2 incubator. Resuspend cells in complete RPMI to give a final concentration of 25,000-cells/175 μl. Add 175 μl of cell mix to wells of 96 well microtiter plate containing 25 μl 8× inhibitors. Add 25,000 uninfected C8166-LTRluc cells/well in 200 μl complete RPMI to last row for background control. Incubate cells at 37° C. in 5% CO2 incubator for 3 days.
as §10, §11
The calculated % inhibition values were then used to determine EC50, slope factor (n) and maximum inhibition (Imax) by the non-linear regression routine NLIN procedure of SAS using the following equation: […]
as §1, §2

[4] = biological target: T2, HIV-1 RT enzyme (wild type) (Human immunodeficiency virus type 1 group M subtype B, UniProt P04585); assay: Reverse transcriptase (RT) enzymatic assay (IC50), PicoGreen fluorescence, wild type; assay type: biochemical; conditions: RT enzymatic assay, wild type; read-out: IC50 WT
T2 construct: The reverse transcriptase (RT) enzyme assay has been adapted to a 96-well microtiter plate format
Outline: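 Enzyme at ≈10 nM in 50 mM Tris/HCl pH 7.8 with 60 mM NaCl, 2 mM MgCl2, 6 mM DTT, 2 mM GSH, 0.02% Chaps; 15 min preincubation with compound at room temperature, then substrate added and run 50 min at 37 °C. EDTA quench; product DNA read by PicoGreen fluorescence.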

O=C(COc1nnnn1-c1cccc2ccccc12)Nc1ccccc1[N+](=O)[O-] [Entry 302]
EC50 (HIV-1 (wild type)): 50 to 100 nM

CC(C)(C)c1ccc(-n2nnnc2SCC(=O)Nc2ccc([N+](=O)[O-])cc2Cl)c(Cl)c1 [Entry 602]
IC50 [1]: > 100 nM
EC50 [2]: > 100 nM
EC50 [3]: 50 to 100 nM
IC50 [4]: < 50 nM

CC(C)(C)c1ccc(-n2nnnc2SCC(=O)Nc2ccc(S(N)(=O)=O)cc2Cl)c(Cl)c1 [Entry 604]
IC50 [1]: < 50 nM
EC50 [2]: < 50 nM
EC50 [3]: < 50 nM
IC50 [4]: < 50 nM

CC(C)(C)c1ccc(-n2nnnc2SCC(=O)Nc2ccc(S(=O)(=O)c3ccc(Cl)cc3)cc2Cl)c(Cl)c1 [Entry 605]
IC50 [1]: > 100 nM
EC50 [2]: > 100 nM
EC50 [3]: 50 to 100 nM
IC50 [4]: < 50 nM

CC(C)(C)c1ccc(-n2nnnc2SCC(=O)Nc2ccc(S(=O)(=O)c3ccccc3)cc2Cl)c(Cl)c1 [Entry 606]
IC50 [1]: 50 to 100 nM
EC50 [2]: 50 to 100 nM
EC50 [3]: < 50 nM
IC50 [4]: < 50 nM

CC(C)S(=O)(=O)c1ccc(NC(=O)CSc2nnnn2-c2ccc(C(C)(C)C)cc2Cl)c(Cl)c1 [Entry 607]
IC50 [1]: > 100 nM
EC50 [2]: 50 to 100 nM
EC50 [3]: < 50 nM
IC50 [4]: < 50 nM

CC(C)CS(=O)(=O)c1ccc(NC(=O)CSc2nnnn2-c2ccc(C(C)(C)C)cc2Cl)c(Cl)c1 [Entry 608]
IC50 [1]: > 100 nM
EC50 [2]: 50 to 100 nM
EC50 [3]: < 50 nM
IC50 [4]: < 50 nM

CN1CCN(c2ccc(NC(=O)CSc3nnnn3-c3ccc(C(C)(C)C)cc3Cl)c(Cl)c2)CC1 [Entry 610]
IC50 [1]: > 100 nM
EC50 [2]: > 100 nM
EC50 [3]: < 50 nM
IC50 [4]: < 50 nM

CC(C)(C)c1ccc(-n2nnnc2SCC(=O)Nc2ccc(N3CCOCC3)cc2Cl)c(Cl)c1 [Entry 611]
IC50 [1]: > 100 nM
EC50 [2]: > 100 nM
EC50 [3]: < 50 nM
IC50 [4]: < 50 nM

CC(C)(C)c1ccc(-n2nnnc2SCC(=O)Nc2ccc(N3CCCC3)cc2Cl)c(Cl)c1 [Entry 612]
IC50 [1]: > 100 nM
EC50 [2]: > 100 nM
EC50 [3]: 50 to 100 nM
IC50 [4]: < 50 nM

CC(C)(C)c1ccc(-n2nnnc2SCC(=O)Nc2ccc(N3CCCCC3)cc2Cl)c(Cl)c1 [Entry 613]
IC50 [1]: > 100 nM
EC50 [2]: > 100 nM
EC50 [3]: < 50 nM
IC50 [4]: < 50 nM

CC(C)(C)OC(=O)N1CCN(c2ccc(NC(=O)CSc3nnnn3-c3ccc(C(C)(C)C)cc3Cl)c(Cl)c2)CC1 [Entry 614]
IC50 [1]: > 100 nM
EC50 [2]: > 100 nM
EC50 [3]: < 50 nM
IC50 [4]: < 50 nM

CC(C)(C)c1ccc(-n2nnnc2SCC(=O)Nc2ccc(N3CCNCC3)cc2Cl)c(Cl)c1 [Entry 615]
IC50 [1]: > 100 nM
EC50 [2]: > 100 nM
EC50 [3]: < 50 nM
IC50 [4]: < 50 nM

CC(C)(C)c1ccc(-n2nnnc2SCC(=O)Nc2ccc(C(=O)O)cc2Cl)c(Cl)c1 [Entry 616]
IC50 [1]: 50 to 100 nM
EC50 [2]: < 50 nM
EC50 [3]: < 50 nM
IC50 [4]: < 50 nM

CC(C)(C)c1ccc(-n2nnnc2SCC(=O)Nc2ccc(N)cc2Cl)c(Cl)c1 [Entry 617]
IC50 [1]: > 100 nM
EC50 [2]: 50 to 100 nM
EC50 [3]: < 50 nM
IC50 [4]: < 50 nM

Cc1cc(C(F)(F)F)cc(-n2nnnc2SCC(=O)Nc2ccc(S(N)(=O)=O)cc2Cl)c1Cl [Entry 703]
IC50 [1]: 50 to 100 nM
EC50 [2]: < 50 nM
EC50 [3]: < 50 nM
IC50 [4]: < 50 nM

CCN(CC)c1ccc(-n2nnnc2SCC(=O)Nc2ccccc2Cl)c(Cl)c1 [Entry 705]
IC50 [1]: > 100 nM
EC50 [2]: > 100 nM
EC50 [3]: < 50 nM
IC50 [4]: < 50 nM

O=C(CSc1nnnn1-c1ccc(I)cc1Cl)Nc1ccccc1Cl [Entry 706]
IC50 [1]: > 100 nM
EC50 [2]: > 100 nM
EC50 [3]: < 50 nM
IC50 [4]: < 50 nM

CCc1ccc(-n2nnnc2SCC(=O)Nc2ccccc2Cl)c(Cl)c1 [Entry 707]
IC50 [1]: > 100 nM
EC50 [2]: > 100 nM
EC50 [3]: < 50 nM
IC50 [4]: < 50 nM

C=CCc1ccc(-n2nnnc2SCC(=O)Nc2ccccc2Cl)c(Cl)c1 [Entry 708]
IC50 [1]: > 100 nM
EC50 [2]: > 100 nM
EC50 [3]: < 50 nM
IC50 [4]: < 50 nM

CC(C)=CCc1ccc(-n2nnnc2SCC(=O)Nc2ccccc2Cl)c(Cl)c1 [Entry 709]
IC50 [1]: > 100 nM
EC50 [2]: > 100 nM
EC50 [3]: > 100 nM
IC50 [4]: < 50 nM

CC(C)(C)c1ccc(-n2nnnc2SCC(=O)Nc2ccncc2Cl)c(Cl)c1 [Entry 801]
IC50 [1]: < 50 nM
EC50 [2]: < 50 nM
EC50 [3]: < 50 nM
IC50 [4]: < 50 nM

Cc1ccc(NC(=O)CSc2nnnn2-c2ccc(C(C)(C)C)cc2Cl)c(Cl)n1 [Entry 802]
IC50 [1]: > 100 nM
EC50 [2]: 50 to 100 nM
EC50 [3]: < 50 nM
IC50 [4]: < 50 nM
